Test [1] concerns T1, PpOTC.
T1 construct: gene OTC; mature form without predicted chloroplast transit peptide (TargetP-2.0, WoLF PSORT); N-terminal 6xHis (pDEST17), tag kept; E. coli; cloned cDNA 984 nt
In words: phosphomolybdate Pi release assay, […] nm; allosteric sigmoidal fit. In kind it is biochemical, Pinus pinaster. The conditions noted are these: 50 mM Tris-HCl pH 8.0, 25 °C, read-out: S0.5.

Test [2] concerns T2, PpASL.
T2 construct: gene ASL; mature form without predicted chloroplast transit peptide (TargetP-2.0, WoLF PSORT); N-terminal 6xHis (pDEST17), tag kept; E. coli; cloned cDNA 1398 nt
The experiment in a line: fumarate absorbance at […] nm. The test is classed as biochemical, Pinus pinaster. The conditions noted are these: 50 mM Tris-HCl pH 8, 25 °C, argininosuccinate above Km.

In test [3] the test system is T1, PpOTC. The experiment in a line: phosphomolybdate Pi release assay, […] nm. The conditions noted are these: 50 mM Tris-HCl pH 8.0, 25 °C, ornithine + carbamoyl-P above Km. In kind it is biochemical, Pinus pinaster.
The test system of test [4] is T3, PpASSY.
T3 construct: gene ASSY; mature form without predicted chloroplast transit peptide (TargetP-2.0, WoLF PSORT); N-terminal 6xHis (pDEST17), tag kept; E. coli; cloned cDNA 1218 nt
The experiment in a line: PPi release, molybdate/ascorbate assay, […] nm. The test is classed as biochemical, Pinus pinaster. The conditions noted are these: 50 mM Tris-HCl pH 8, 25 °C, 3 mM ATP, 10 mM MgCl2.

The test system of test [5] is T2, PpASL. In words: fumarate absorbance at […] nm. The test is classed as biochemical, Pinus pinaster. The conditions noted are these: 50 mM Tris-HCl pH 8, 25 °C.
For test [6], the target named is recombinant Pinus pinaster argininosuccinate synthetase (PpASSY) (Pinus pinaster). The experiment in a line: SEC; desalted purified recombinant enzymes loaded separately on an ENrich SEC 650 column calibrated with protein standards (29-669 kDa); holoenzyme mass from the partition coefficient (Kav); elution followed at 280 nm and confirmed by western blot. (In gel filtration, larger molecules generally elute earlier.)

The target in test [7] is recombinant Pinus pinaster argininosuccinate lyase (PpASL) (Pinus pinaster). The test is described as above.
The target in test [8] is recombinant Pinus pinaster ornithine transcarbamylase (PpOTC) (Pinus pinaster). The test is described as above.
In test [9] the test system is T3, PpASSY. In words: PPi release, molybdate/ascorbate assay, […] nm. In kind it is biochemical, Pinus pinaster. The conditions noted are these: 50 mM Tris-HCl pH 8, 25 °C, citrulline, aspartate, 3 mM ATP, 10 mM MgCl2, substrates above Km; partial inhibition.

Read-outs that look alike come from different tables or passages of the source.

The source of these data is article PMC7601404, “Enzymes Involved in the Biosynthesis of Arginine from Ornithine in Maritime Pine (Pinus pinaster Ait.)” (Plants, 2020).

In general, IC50 refers to the point on the concentration scale where inhibition reaches its midpoint. Usually stoichiometry N stands for the number of molecules, sites or subunits per partner or assembly.

For the compound `NC(=O)OP(=O)(O)O` [carbamoyl-P], the Km with PpOTC [1] (ornithine co-substrate, negative cooperativity) was found to be 3480 ± 1400 µM.
Regarding `NCCCCNCCCN` [spermidine], the IC50 in the test with PpASL [2] turned out to be 4.97 mM.
In the case of `CC(C)[C@H](N)C(=O)O` [valine], the IC50 in the test with PpOTC [3] was found to be 7.19 mM.
In the case of `NCCC[C@H](N)C(=O)O` [ornithine], the Km in the test on PpOTC [1] (carbamoyl-P co-substrate (5 mM), positive cooperativity) came to 1280 ± 160 µM.
Consider `NCCCNCCCCNCCCN` [spermine], for which, in the test on PpASL [2], the IC50 is 19.2 mM.
Turning to `NC(=O)NCCC[C@H](N)C(=O)O` [citrulline], the Km in the test on PpASSY [4] (2 mM aspartate) came out at 120 ± 30 µM.
For the compound `N=C(NCCC[C@H](N)C(=O)O)N[C@@H](CC(=O)O)C(=O)O` [argininosuccinate], the Km in the test on PpASL [5] turned out to be 220 ± 30 µM.
As for `N[C@@H](CC(=O)O)C(=O)O` [aspartate], in the test with PpASSY [4] (2 mM citrulline), the Km was determined as 120 ± 50 µM.
As for “recombinant Pinus pinaster argininosuccinate synthetase (PpASSY) (enzyme)”, the stoichiometry N in test [6] was determined as 4.
Consider “recombinant Pinus pinaster argininosuccinate lyase (PpASL) (enzyme)”, for which, in [7], the stoichiometry N was 4.
“recombinant Pinus pinaster ornithine transcarbamylase (PpOTC) (enzyme)”: in test [8], the stoichiometry N is 3.
For `N=C(N)NCCC[C@H](N)C(=O)O` [arginine], the figures for the IC50 with PpASSY [9] and with PpOTC [3] (negative allosteric) were 1.94 mM and 10.3 mM, respectively.
